The record followed here is ChEMBL document CHEMBL1129938, “Synthesis and biological evaluation of nonclassical 2,4-diamino-5-methylpyrido[2,3-d]pyrimidines with novel side chain substituents as potential inhibitors of dihydrofolate reductases” (J Med Chem, 1997).

Series [1] has as its target T1, Dihydrofolate reductase (Rattus norvegicus, UniProt Q920D2).
T1 sequence (Q920D2 whole entry): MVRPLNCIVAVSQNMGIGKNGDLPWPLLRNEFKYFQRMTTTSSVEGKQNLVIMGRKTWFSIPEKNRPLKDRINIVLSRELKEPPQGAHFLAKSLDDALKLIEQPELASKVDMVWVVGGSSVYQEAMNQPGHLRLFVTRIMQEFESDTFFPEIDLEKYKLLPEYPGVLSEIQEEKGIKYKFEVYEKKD
Description: Inhibition of Dihydrofolate Reductase of Rat Liver.

Series [2] addresses T2, Dihydrofolate reductase (Pneumocystis carinii, UniProt P16184).
T2 sequence (P16184 whole entry): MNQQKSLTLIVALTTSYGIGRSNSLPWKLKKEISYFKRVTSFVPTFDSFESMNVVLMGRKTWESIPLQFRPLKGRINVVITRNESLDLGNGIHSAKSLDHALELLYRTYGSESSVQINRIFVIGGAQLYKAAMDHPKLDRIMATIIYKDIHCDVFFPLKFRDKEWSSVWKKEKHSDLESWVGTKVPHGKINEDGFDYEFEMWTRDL
Description: Inhibition of Dihydrofolate Reductase of Pneumocystis carinii.

Series [3] deals with T3, Bifunctional dihydrofolate reductase-thymidylate synthase (Toxoplasma gondii, UniProt Q07422).
T3 sequence (Q07422 whole entry): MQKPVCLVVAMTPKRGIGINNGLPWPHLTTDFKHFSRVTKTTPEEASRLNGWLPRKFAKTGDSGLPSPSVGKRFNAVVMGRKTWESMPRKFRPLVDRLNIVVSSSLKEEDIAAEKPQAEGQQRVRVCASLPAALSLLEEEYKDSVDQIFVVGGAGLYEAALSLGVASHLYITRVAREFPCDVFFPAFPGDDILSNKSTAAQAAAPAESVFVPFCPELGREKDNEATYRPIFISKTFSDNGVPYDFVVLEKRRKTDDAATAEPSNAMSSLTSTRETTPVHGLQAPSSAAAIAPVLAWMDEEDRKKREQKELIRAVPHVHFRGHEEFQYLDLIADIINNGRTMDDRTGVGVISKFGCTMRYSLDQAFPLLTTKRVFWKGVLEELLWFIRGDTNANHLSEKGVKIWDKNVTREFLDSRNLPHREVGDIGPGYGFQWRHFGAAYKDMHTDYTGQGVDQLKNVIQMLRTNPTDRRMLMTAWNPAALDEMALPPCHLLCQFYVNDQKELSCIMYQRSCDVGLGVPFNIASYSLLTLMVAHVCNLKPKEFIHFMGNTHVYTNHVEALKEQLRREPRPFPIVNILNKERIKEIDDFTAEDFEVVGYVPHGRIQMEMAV
Description: Inhibition of Dihydrofolate Reductase of Toxoplasma gondii.

The nature of series [4]: Partition coefficient (logP). The format is physicochemical. The note with it: octanol/water.
Series [5] in a line: Selectivity ratio of Toxoplasma gondii cell culture to the T. gondii (tg) Dihydrofolate Reductase. Format: functional.
Another series has as its system CHO. Briefly: Cell culture inhibition was assessed by measuring incorporation of [3H]uracil into Toxoplasma gondii cells (CHO cell line). Format: functional, cell-based. The following applies: Cricetulus griseus.

One may read the IC50 as the point on the concentration scale where inhibition reaches its midpoint. Consider `Cc1c(C)c(-n2cccc2)c(C)c(C)c1NCc1cnc2nc(N)nc(N)c2c1C`, for which the IC50 was 170 nM on Dihydrofolate reductase [1], 620 nM on Dihydrofolate reductase [2] and 75 nM in series [3].

`COc1ccc2c(c1)CCN2Cc1cnc2nc(N)nc(N)c2c1C`: the IC50 against Dihydrofolate reductase [1] was determined as 170 nM; on Dihydrofolate reductase [2], 250 nM; in series [3] it was 57 nM.

For the molecule `COc1cc2c(cc1OC)CN(Cc1cnc3nc(N)nc(N)c3c1C)CC2`, the IC50 at Dihydrofolate reductase [1] worked out at 130 nM; against Dihydrofolate reductase [2], 850 nM; in series [3], 110 nM.

Take `COc1cc(NCc2cnc3nc(N)nc(N)c3c2C)c(-n2cccc2)cc1OC`: the IC50 against Dihydrofolate reductase [1] amounted to 3500 nM; in series [3] it was 600 nM.

As a reminder, the logP is the decadic logarithm of the partition coefficient of the neutral form, usually between octanol and water. For `COc1ccc(-c2ccccc2)cc1NCc1cnc2nc(N)nc(N)c2c1C`, the IC50 amounted to 440 nM at Dihydrofolate reductase [1] and 68 nM in series [3]. Further, the logP in series [4] was 4.77.

On to `COc1ccc2c(ccn2Cc2cnc3nc(N)nc(N)c3c2C)c1`, for which the IC50 was 470 nM against Dihydrofolate reductase [1], 1000 nM in the series on CHO, 570 nM at Dihydrofolate reductase [2] and 77 nM in series [3]. Further, the Selectivity ratio in series [5] is on record as 13. The logP in series [4] was found to be 3.07.

Turning to `COc1cccc2c1CCN2Cc1cnc2nc(N)nc(N)c2c1C`, the IC50 was found to be 150 nM against Dihydrofolate reductase [1], 290 nM at Dihydrofolate reductase [2] and 48 nM in series [3].

For the molecule `COc1cc2c(cc1OC)N(Cc1cnc3nc(N)nc(N)c3c1C)CC2`, the IC50 was determined as 230 nM at Dihydrofolate reductase [1], 25100 nM in the series with CHO, 410 nM against Dihydrofolate reductase [2] and 49 nM in series [3]. The Selectivity ratio in series [5] is 512. This molecule came in with a logP in series [4] of 2.33.

Regarding `COc1cc(-n2cccc2)c(OC)cc1NCc1cnc2nc(N)nc(N)c2c1C`, the IC50 at Dihydrofolate reductase [1] amounted to 230 nM; on Dihydrofolate reductase [2] it was 350 nM; in series [3], 33 nM.
